Article PMC7588595, “Small-molecule active pharmaceutical ingredients of approved cancer therapeutics inhibit human aspartate/asparagine-β-hydroxylase” (Bioorganic & Medicinal Chemistry, 2020)
Structures can show the parent of a compound that is named as a salt. Where two headings read alike, the source gives them in different places. Starred links: 1 amine or outer side, 2 acyl side, 3 side chain; linkers in the order of their positions; H or OH if unused. Positions of bridges follow the written chain, without caps; N, C: chain ends. Non-standard residues stand in square brackets, D forms with d. Residues, ends and D or L forms follow the SMILES beside them. Chains are numbered I, II in the order given. Actinocin(9to1) = Cc1c2oc3c(C)ccc(C(=O)[*:1])c3nc-2c(C(=O)[*:2])c(N)c1=O; NMeV = CN[C@H](C(=O)O)C(C)C; Sar = CNCC(=O)O

Target: T1, human AspH (His6-AspH315–758) (Homo sapiens, UniProt Q12797)
T1 construct: N-Terminally His6-tagged human AspH315–758 (His6-AspH315–758) was produced in Escherichia coli BL21 (DE3) cells; made in house; host or cells: Escherichia coli BL21 (DE3), pET-28a(+) vector
T1 sequence (Q12797 315-758): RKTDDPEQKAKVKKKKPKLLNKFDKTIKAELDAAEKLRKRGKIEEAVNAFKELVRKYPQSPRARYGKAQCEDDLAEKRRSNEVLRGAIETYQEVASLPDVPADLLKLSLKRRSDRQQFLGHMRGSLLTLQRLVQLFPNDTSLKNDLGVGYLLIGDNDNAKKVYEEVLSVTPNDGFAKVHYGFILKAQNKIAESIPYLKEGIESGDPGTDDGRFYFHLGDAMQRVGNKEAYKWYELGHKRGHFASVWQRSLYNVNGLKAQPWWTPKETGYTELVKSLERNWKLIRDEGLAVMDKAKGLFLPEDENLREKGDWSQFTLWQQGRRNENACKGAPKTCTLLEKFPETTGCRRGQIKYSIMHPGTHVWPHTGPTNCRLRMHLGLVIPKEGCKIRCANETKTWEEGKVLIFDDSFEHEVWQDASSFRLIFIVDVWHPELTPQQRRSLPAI
Test: SPE-MS AspH inhibition assay (hFX-CP101-119 substrate hydroxylation)
Type: biochemical

[1] = AspH-inhibitor screening, 384-well Plate 1
[2] = AspH-inhibitor screening, 384-well Plate 1, substrate conversion
[3] = AspH-inhibitor screening, Plate 1-duplicate
[4] = AspH-inhibitor screening, Plate 1-duplicate, substrate conversion

Molecule	Plate 1 (% inhibition) [1] [%]	Plate 1 (% conversion) [2] [%]	Plate 1-duplicate (% inhibition) [3] [%]	Plate 1-duplicate (% conversion) [4] [%]	also measured
COCC1(CO)C(=O)C2CCN1CC2 (centres unmarked) [Prima-1 Met]	3.70	48.04	3.39	50.36	–
COc1cccc2c1C(=O)c1c(O)c3c(c(O)c1C2=O)C[C@@](O)(C(C)=O)C[C@@H]3O[C@H]1C[C@H](N)[C@H](O)[C@H](C)O1 [Daunorubicin hydrochloride]	-28.45	62.89	-40.01	71.89	–
CC(C)(C#N)c1cc(Cn2cncn2)cc(C(C)(C)C#N)c1 [Anastrozole]	2.34	48.67	3.84	50.14	–
CO[C@@H]1[C@H](N(C)C(=O)c2ccccc2)C[C@H]2O[C@]1(C)n1c3ccccc3c3c4c(c5c6ccccc6n2c5c31)C(=O)NC4 [Midostaurin, reference compound]	–	–	–	–	IC50 (50 nM His6-AspH315–758, 1 μM hFX-CP101–119, 100 μM LAA, 3 μM 2OG, 2 μM FAS, 50 mM HEPES pH 7.5, 20 °C, read-out: IC50): 9.43 ± 3.07 µM; IC50 (read-out: IC50 at 10 μM substrate, 10 μM hFX-CP101–119 and 10 μM 2OG instead of 1 μM hFX-CP101–119 and 3 μM 2OG): 6.02 ± 1.32 µM; IC50 (read-out: IC50 at 20 μM Fe(II), 20 μM Fe(II) instead of 2 μM Fe(II)): 7.28 ± 0.9 µM; IC50 (read-out: IC50 at 200 μM 2OG, 200 μM 2OG instead of 3 μM 2OG): 12.4 ± 2.9 µM
Oc1ncc(N(CCCl)CCCl)c(O)n1 [Uracil mustard]	–	–	–	–	Plate 1 (% conversion): 47.47%; Plate 1 (% inhibition): 4.95%; Plate 1-duplicate (% conversion): 46.70%; Plate 1-duplicate (% inhibition): 10.76%
CN(C)C/C=C/C(=O)Nc1cc2c(Nc3ccc(F)c(Cl)c3)ncnc2cc1O[C@H]1CCOC1 [BIBW2992 (Tovok)_Afatinib]	-24.14	60.90	-42.32	73.03	–
CCc1c(C(=O)C(N)=O)c2c(OCC(=O)O)cccc2n1Cc1ccccc1 [Varespladib]	9.84	45.21	8.14	48.01	–
CCn1c(C(=O)N(C2CC2)C2CC2)cc2c3c(ncn3C)c(Nc3cc(C)n(C)n3)nc21 [BMS-911543]	-9.55	54.16	-14.91	59.44	–
Cn1cnc2c(F)c(Nc3ccc(Br)cc3F)c(C(=O)NOCCO)cc21 [ARRY-162_MEK-162]	-1.29	50.34	1.23	51.43	–
CN[C@@H](C)C(=O)N[C@H]1CN(C(=O)CC(C)C)CC[C@H]2CC[C@@H](C(=O)NC(c3ccccc3)c3ccccc3)N2C1=O [AT-406]	3.10	48.32	-2.44	53.25	–
CC(=O)Nc1ccc(C(=O)Nc2ccccc2N)cc1 [CI-994_Tacedinaline]	4.32	47.76	4.57	49.78	–
CS(=O)(=O)CCNCc1ccc(-c2ccc3ncnc(Nc4ccc(OCc5cccc(F)c5)c(Cl)c4)c3c2)o1 [Lapatinib]	-31.93	64.49	-19.57	61.75	–
CNC(=O)c1cc(Oc2ccc(NC(=O)Nc3ccc(Cl)c(C(F)(F)F)c3)c(F)c2)ccn1 [BAY 73-4506_Regorafenib]	62.82	20.74	53.45	25.53	–
Cc1c2oc3c(C)ccc(C(=O)N[C@@H]4C(=O)N[C@H](C(C)C)C(=O)N5CCC[C@H]5C(=O)N(C)CC(=O)N(C)[C@@H](C(C)C)C(=O)O[C@@H]4C)c3nc-2c(C(=O)N[C@@H]2C(=O)N[C@H](C(C)C)C(=O)N3CCC[C@H]3C(=O)N(C)CC(=O)N(C)[C@@H](C(C)C)C(=O)O[C@@H]2C)c(N)c1=O [Dactinomycin] (I: T[dV]P[Sar][NMeV] / II: T[dV]P[Sar][NMeV]; ester I:1-I:C, II:1-II:C; linker I:N-II:N via Actinocin(9to1))	-0.066	49.78	-9.41	56.71	–
O=P1(NCCCl)OCCCN1CCCl (centres unmarked) [Ifosfamide]	7.87	46.12	4.50	49.81	–
AZD4547	-11.19	54.92	-5.75	54.89	–

Further lines, with some results ahead:

Plate 1 (% inhibition) [1] [%]	Plate 1 (% conversion) [2] [%]	Plate 1-duplicate (% inhibition) [3] [%]	Plate 1-duplicate (% conversion) [4] [%]	Molecule	also measured
-11.71	55.16	-8.54	56.28	COc1cc2c(N3CCN(C(=O)Nc4ccc(OC(C)C)cc4)CC3)ncnc2cc1OCCCN1CCCCC1 [Tandutinib]	–
7.39	46.34	9.73	47.22	Cl.NC(=O)c1cccc2cn(-c3ccc([C@@H]4CCCNC4)cc3)nc12 [MK-4827, HCl salt]	–
6.00	46.98	5.43	49.35	COC(=O)C[C@](O)(CCCC(C)(C)O)C(=O)O[C@@H]1C(OC)=C[C@]23CCCN2CCc2cc4c(cc2[C@H]13)OCO4 [Homoharringtonine]	–
3.16	48.29	1.43	51.33	O=C1CCC(N2C(=O)c3ccccc3C2=O)C(=O)N1 (centres unmarked) [Thalidomide]	–
5.75	47.09	1.85	51.12	C=CCn1c(=O)c2cnc(Nc3ccc(N4CCN(C)CC4)cc3)nc2n1-c1cccc(C(C)(C)O)n1 [MK1775]	–
-6.58	52.79	-5.13	54.58	COc1ccc(-c2cc3c(C)nc(N)nc3n([C@H]3CC[C@H](OCCO)CC3)c2=O)cn1 [PF-04691502]	–
4.31	47.76	3.98	50.07	N#CC[C@H](C1CCCC1)n1cc(-c2ncnc3[nH]ccc23)cn1 [INCB018424 (free base, Ruxolitinib)]	–
-6.35	52.68	-0.27	52.18	C[C@@H](Oc1cc(-c2cnn(C3CCNCC3)c2)cnc1N)c1c(Cl)ccc(F)c1Cl [Crizotinib]	–
-15.63	56.97	-16.09	60.02	CCC(C)(C)C(=O)O[C@H]1C[C@@H](C)C=C2C=C[C@H](C)[C@H](CC[C@@H]3C[C@@H](O)CC(=O)O3)[C@H]21 [Simvastatin]	–
2.93	48.40	4.05	50.03	COc1cc(F)c(F)c(Nc2ccc(I)cc2F)c1NS(=O)(=O)C1(C[C@H](O)CO)CC1 [RDEA119_Refametinib]	–
-0.85	50.14	0.27	51.91	Nc1ncnc2c1c(COc1cccc(Cl)c1)nn2C1CCOCC1 [PF4800567 hydrochloride]	–
0.74	49.41	5.87	49.13	O=c1[nH]c(=O)n([C@H]2C[C@H](O)[C@@H](CO)O2)cc1F [Floxuridine]	–
-20.82	59.36	-21.12	62.52	Cc1nc(Nc2ncc(C(=O)Nc3c(C)cccc3Cl)s2)cc(N2CCN(CCO)CC2)n1 [Dasatinib]	–
5.14	47.38	3.83	50.14	Cn1c(=O)n(-c2ccc(C(C)(C)C#N)cc2)c2c3cc(-c4cnc5ccccc5c4)ccc3ncc21 [NVP-BEZ235_Dactolisib]	–
4.40	47.72	1.12	51.48	CO[C@@H](C(=O)N1Cc2[nH]nc(NC(=O)c3ccc(N4CCN(C)CC4)cc3)c2C1)c1ccccc1 [PHA-739358 (Danusertib)]	–
5.18	47.36	4.86	49.63	Cc1cccc(-c2nn3c(c2-c2ccnc4ccc(C(N)=O)cc24)CCC3)n1 [LY2157299]	–
